Laboratory results as given in paper PMC6099615, “Anti-glycation, Carbonyl Trapping and Anti-inflammatory Activities of Chrysin Derivatives” (Molecules : A Journal of Synthetic Chemistry and Natural …, 2018).
≈ marks a conversion by molar mass, not a printed value.

How the values were obtained:
[1] = test system: NO production in LPS-induced RAW 264.7 cells; assay: NO generation in LPS-induced RAW 264.7 cells (Griess); type: cell-based; conditions: 24 h
Procedure: The cytotoxicity of CS and derivatives on RAW 264.7 cells was examined using the MTS assay kit. Cells (1.6 × 10^4/well) were cultured in 96-well plates and treated with samples (10, 25, and 100 μM) for 12, 24, 48, and 72 h. After incubation, 20 μL/well of MTS solution was incubated for 90 min at 37 °C in a humidified 5% CO2 atmosphere. The optical density at 490 nm was measured three times using an EL-800 Universal microplate reader (Bio-Tek Instrument Inc., Winooski, VT, USA). Cell viability of the untreated group was set to 100%. RAW 264.7 cells were seeded into 12-well plates at 4 × 10^5-cells/well, and then incubated with LPS (1 μg/mL) and various concentrations of samples for 24 h. The concentration of nitric oxide (NO) in the medium was measured using the Griess reagent system, as described by the manufacturer. The production of NO was measured at 570 nm using an EL-800 Universal microplate reader (Bio-Tek Instrument Inc., Winooski, VT, USA), and was compared with a sodium nitrite standard calibration curve.

[2] = Water solubility analysis; type: physicochemical; conditions: for water solubility, fold higher than CS: relative to CS; for solubility at 1 h: thermodynamic from solid, distilled water, 37 °C, sonication 1 h
Procedure: CS and derivatives were dissolved in distilled water and incubated at 37 °C with sonication for 1 h to maximize solubility. After sonication, undissolved samples were eliminated by centrifugation (7000× g, 37 °C, 5 min). The supernatants were diluted in methanol and filtered through a 0.45 μm disposable syringe filter (Advantec, Dublin, CA, USA) to analyze the concentration of the samples using HPLC analysis.

[3] = test system: AGEs cross-linking; assay: N-acetyl-glycyl-lysine-methyl ester D-ribose assay on AGE cross-linking; type: biochemical; conditions: GK peptide-D-ribose, 37 °C, 72 h
Procedure: (§1) This test was used to evaluate the ability of samples to inhibit cross-linking of the GK peptide in the presence of D-ribose using the method described by Hwang et al. The GK peptide (26.7 mg/mL) was incubated with D-ribose (200 mg/mL) in sodium phosphate buffer (0.5 M, pH 7.4) containing 0.2 g/L NaN3 under sterile conditions at 37 °C for 72 h. […] All reagents and samples were sterilized by filtration through […] membrane filters. The fluorescence intensity was measured at an excitation wavelength of 355 nm and an emission wavelength of 460 nm with a Luminescence spectrometer LS50B (Perkin-Elmer Ltd., Buckinghamshire, England). AG was used as a positive control.

[4] = test system: Amadori compound formation; assay: Hemoglobin-δ-gluconolactone assay of Amadori compound formation; type: biochemical; design: inhibition rate of Amadori compound formation: dose or concentration left out as unconfirmed; conditions: for IC50: early stage of AGE formation; for inhibitory activity on Amadori compound formation, fold higher than positive control AG: relative to Aminoguanidine hydrochloride (IC50 = 109.74 μM)
[5] = test system: AGE formation; assay: Bovine serum albumin-methylglyoxal assay on AGE formation; type: biochemical; conditions: BSA-methylglyoxal, 37 °C, 48 h
Procedure: Bovine serum albumin (50 mg/mL) was incubated at 37 °C for 48 h with methylglyoxal (100 mM) in sodium phosphate buffer (0.1 M, pH 7.4) containing 0.2 g/L NaN3 in the presence of various concentrations of the compounds (including a control).
as §1

Row | SMILES | inhibition of NO [1] | water solubility, fold higher than CS [2] [fold] | solubility at 1 h [2] [µM] | IC50 [3] [µM] | inhibition rate of Amadori compound formation ([4]; dose-dependent) | IC50 [4] [µM] | inhibitory activity on Amadori compound formation, fold higher than positive control AG [4] [fold] | inhibitory activity on Amadori compound formation, fold higher than CS ([4]; relative to CS) [fold] | IC50 [5] [µM] | inhibitory activity on Amadori compound formation ([4]; up to a concentration of 10.0 mg/mL)
1 | CC(=O)Oc1cc(OC(C)=O)c2c(=O)cc(-c3ccccc3)oc2c1 [5,7-Di-O-acetylchrysin, 5,7-di-O-acetylchrysin] | concentration-dependent inhibition | 8.83 | 265 (≈ 89.7 µg/mL) | 22.3 | 1.76–55.13% | 0.26 | 422.07 | 66.96 | 0.91 | 
2 | COc1cc(OC)c2c(=O)cc(-c3ccccc3)oc2c1 [5,7-Di-O-methoxychrysin, 5,7-di-O-methoxychrysin] |  |  | 11 (≈ 3.11 µg/mL) | 39.9 |  | 7.88 | 13.92 |  | 41.8 | 
3 | CC(=O)Oc1cc(O)c2c(=O)cc(-c3ccccc3)oc2c1 [7-O-Acetylchrysin, 7-O-acetylchrysin] |  | 2.87 | 86 (≈ 25.5 µg/mL) | > 2000 |  | 23.5 | 4.66 |  | 21.6 | 
4 | COc1cc(O)c2c(=O)cc(-c3ccccc3)oc2c1 [7-O-Methoxychrysin, 7-O-methoxychrysin] |  |  | 10 (≈ 2.68 µg/mL) | > 2000 |  | > 31000 |  |  | > 200 | no inhibitory activities
